Measured values published in US20240246920A1, “TRIAZOLE DERIVATIVES WITH ANTIFUNGAL ACTIVITY” (King's College London, priority 2020, published 2024).
In brackets after ≈: the same amount, converted by molar mass. Where two headings read alike, the source gives them in different places.

Key:
[1] = test system: Candida auris TDG2512; assay: Candida panel MIC, serial dilution in 96-well plates; assay type: cell-based; settings: Candidozyma auris, TDG2512; Table 4, extended panel; 24 hours, ≥50% inhibition; read-out: MIC Candida auris TDG2512
Procedure, shortened: (§1)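 Broth microdilution in RPMI 1640/MOPS/2% glucose, pH 7.0, compound serially diluted from 128 to 0.25 μg/mL. Inoculum 0.5-5×10^5/mL from overnight 37 °C cultures; plates incubated 24 h at 37 °C. Growth read at OD530; MIC is lowest concentration giving ≥50% inhibition versus drug-free growth control.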

[2] = test system: Candida auris TDG1102; assay: as above; assay type: cell-based; settings: Candidozyma auris, TDG1102; Table 4, extended panel; 24 hours, ≥50% inhibition; read-out: MIC Candida auris TDG1102
Procedure, shortened: as §1

[3] = test system: C. tropicalis NCPF8760; assay: as above; assay type: cell-based
Procedure, shortened: as §1

[4] = test system: C. auris TDG1912; assay: as above; assay type: cell-based; settings: Candidozyma auris, TDG1912; Table 4; 24 hours, ≥50% inhibition; read-out: MIC C. auris TDG1912
Procedure, shortened: as §1

[5] = test system: C. auris strain TDG1912; assay: Galleria mellonella infection model, larval survival; assay type: in vivo; settings: G. mellonella infected with C. auris TDG1912; survival over 120 hours
Description: The effects of test compounds in-vivo was assessed using a Galleria mellonella infection model.
G. mellonella were injected in a proleg with 10 μL of C. auris strain TDG1912 (OD4) at a concentration of 1×10^6 cfu/10 μL using a Hamilton syringe and left for 30 minutes to recover from injection and to allow infection to begin. The G. mellonella were then injected with 10 μL of the compound of the invention at either 50 mg/kg (10% DMSO) or 20 mg/kg (4% DMSO) or PBS containing 10% DMSO as an infection-only control. 10 larvae were selected for each treatment, and the experiment was repeated 3 times for the test compound and fluconazole. Survival of larvae was monitored for a 5 day period and results are presented as % survival over 120 hours (see FIG. 1).

[6] = test system: C. parapsilosis NCPF3209; assay: microbe, parasite or virus in culture; assay type: cell-based, Candida parapsilosis; settings: Lodderomyces parapsilosis
Procedure, shortened: (§2)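 MIC taken as lowest concentration inhibiting growth ≥50% relative to drug-free control, from OD530 after 24 hours at 37° C. Fungi at 0.5-5×10^5/mL were exposed to serially diluted compound in RPMI 1640/MOPS/2% glucose medium adjusted to pH 7.0.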

[7] = test system: Candida auris TDG2506; assay: microbe, parasite or virus in culture; assay type: cell-based; settings: Candidozyma auris
Procedure, shortened: (§3)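 MIC is the lowest concentration inhibiting growth by ≥50% relative to the drug-free control, read at OD530 nm after 24 hours at 37° C. Fungi were seeded at 0.5-5×10^5/mL in MOPS-buffered RPMI 1640 with 2% glucose, pH 7.0; compounds came from DMSO solutions diluted in media.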

[8] = test system: Candida auris TDG2211; assay: microbe, parasite or virus in culture; assay type: cell-based; settings: Candidozyma auris
Procedure, shortened: as §3

[9] = test system: C. albicans NCPF3281; assay: Candida panel MIC, serial dilution in 96-well plates; assay type: cell-based, Candida albicans
Procedure, shortened: as §1

[10] = test system: C. krusei NCPF3876; assay: microbe, parasite or virus in culture; assay type: cell-based, Candida krusei; settings: Pichia kudriavzevii
Procedure, shortened: as §2

[11] = test system: Aspergillus carbonarius ATCC 8740; assay: Aspergillus panel MIC; assay type: cell-based; settings: Table 8
Description: (§4) Starter cultures of fungal strains to be tested were grown in 3 mL of RPMI 2% glucose media incubated at 37° C. with shaking at 200 rpm overnight. The culture media used was 900 mL H2O; 10.4 g RPMI 1640 (with L-glutamine and a pH indicator but without bicarbonate); 34.5 g MOPS and 18 g glucose. The pH of the media was adjusted to 7.0 with 1 M sodium hydroxide.
(§5) Solutions of the compound to be tested were prepared by dissolving the compound in DMSO and subsequently into media to the desired concentrations. 200 μL of compound solution was then added to the wells of the 96-well plate using a serial dilution method row-by row of the plate to give a compound concentration gradient across the plate of from 128 μg/mL to 0.25 μg/mL. The last two rows of each plate were control rows containing the culture media alone and the media plus fungi.
(§6) The fungi starter cultures were diluted 1:10 in water in cuvettes. This was then further diluted to an optical density (OD600) of 0.01 in media. 100 μL of the fungi was added to each well giving a starting concentration of fungus of 0.5-5×10^5/mL. One species of fungus was used on each plate. The plates were then held at 37° C. for 24 hours.
(§7) A plate reader was used to measure growth in each well at OD530 nm and the MIC was determined for each test compound. The MIC is defined as the lowest concentration giving rise to inhibition of ≥50% of that of the drug-free control well containing the fungus and media.
(§8) The compound of Example 2 (which corresponds to compound number 2) was tested against a panel of Aspergillus strains using a method analogous to that described above for the Candida Panel.

[12] = test system: Aspergillus fumigatus ATCC 13073; assay: Aspergillus panel MIC; assay type: cell-based; settings: Table 8
Description: as §4, §5, §6, §7, §8

[13] = test system: Aspergillus fumigatus ATCC 10894; assay: Aspergillus panel MIC; assay type: cell-based; settings: Table 8
Description: as §4, §5, §6, §7, §8

[14] = test system: Aspergillus fumigatus ATCC 204305; assay: Aspergillus panel MIC; assay type: cell-based; settings: Table 8
Description: as §4, §5, §6, §7, §8

[15] = test system: Aspergillus fulavus ATCC 204304; assay: Aspergillus panel MIC; assay type: cell-based; settings: Table 8
Description: as §4, §5, §6, §7, §8

[16] = test system: Aspergillus fumigatus ATCC 16424; assay: Aspergillus panel MIC; assay type: cell-based; settings: Table 8
Description: as §4, §5, §6, §7, §8

[17] = test system: Aspergillus fumigatus ATCC 1028; assay: Aspergillus panel MIC; assay type: cell-based; settings: Table 8
Description: as §4, §5, §6, §7, §8

[18] = test system: C. glabrata NCPF8018; assay: Candida panel MIC, serial dilution in 96-well plates; assay type: cell-based, Candida glabrata; settings: Nakaseomyces glabratus
Procedure, shortened: as §2

**Q.** Which MIC [1] does the source give for OC(Cn1cncn1)(Cn1cncn1)c1ccc(F)cc1F [Fluconazole, fluconazole, reference compound] here?
**A.** 16 mg/L (≈ 52.2 µM)

**Q.** And the MIC [2]?
**A.** 64 mg/L (≈ 209 µM)

**Q.** And the MIC ([3]; NCPF8760, Table 4, common panel, 24 hours, ≥50% inhibition, read-out: MIC C. tropicalis NCPF8760)?
**A.** 4 to 8 mg/L (≈ 13.1 to 26.1 µM)

**Q.** What about the MIC ([3]; NCPF8760, read-out: MIC C. Tropicalis NCPF8760) of the same molecule?
**A.** 4 to 8 mg/L (≈ 13.1 to 26.1 µM)

**Q.** And the MIC [4]?
**A.** > 128 mg/L

**Q.** What about the “Protection against multi-drug resistant C. auris (larval survival)” value [5] of the same molecule?
**A.** no significant effect

**Q.** What about the MIC ([6]; NCPF3209, read-out: MIC C. Parapsilosis NCPF3209) of the same molecule?
**A.** ≤ 0.25 mg/L

**Q.** What about the MIC ([6]; NCPF3209, read-out: MIC Fluconazole, C. parapsilosis 3209) of the same molecule?
**A.** 0.5 mg/L (≈ 1.63 µM)

**Q.** And the MIC ([6]; NCPF3209, Table 4, common panel, 24 hours, ≥50% inhibition, read-out: MIC C. parapsilosis NCPF3209)?
**A.** ≤ 0.25 mg/L

**Q.** And the MIC ([7]; TDG2506, read-out: MIC C. auris 2506)?
**A.** > 128 mg/L

**Q.** And the MIC ([7]; TDG2506, Table 4, extended panel, 24 hours, ≥50% inhibition, read-out: MIC Candida auris TDG2506)?
**A.** > 128 mg/L

**Q.** And the MIC ([8]; TDG2211, read-out: MIC C. auris 2211)?
**A.** 16 to 128 mg/L (≈ 52.2 to 418 µM)

**Q.** And the MIC ([8]; TDG2211, Table 4, extended panel, 24 hours, ≥50% inhibition, read-out: MIC Candida auris TDG2211)?
**A.** 64 mg/L (≈ 209 µM)

**Q.** What about the MIC ([9]; Candida albicans, NCPF3281, read-out: MIC Fluconazole, C. albicans 3281) of the same molecule?
**A.** > 128 mg/L

**Q.** What about the MIC ([9]; Candida albicans, NCPF3281, Table 4, common panel, 24 hours, ≥50% inhibition, read-out: MIC C. albicans NCPF3281) of the same molecule?
**A.** ≤ 0.125 mg/L

**Q.** And the MIC ([9]; NCPF3281, Table 6, Candida albicans panel, read-out: MIC C. albicans NCPF3281)?
**A.** ≤ 0.125 mg/L

**Q.** And the MIC ([10]; NCPF3876, read-out: MIC C. Krusei NCPF3876)?
**A.** 0.5 to 8 mg/L (≈ 1.63 to 26.1 µM)

**Q.** And the MIC ([10]; NCPF3876, read-out: MIC Fluconazole, C. krusei 3876)?
**A.** 32 mg/L (≈ 104 µM)

**Q.** And the MIC ([10]; NCPF3876, Table 4, common panel, 24 hours, ≥50% inhibition, read-out: MIC C. krusei NCPF3876)?
**A.** 0.5 to 8 mg/L (≈ 1.63 to 26.1 µM)

**Q.** And the “Minimum inhibitory concentration Aspergillus carbonarius ATCC 8740” value [11]?
**A.** >64

**Q.** And the “Minimum inhibitory concentration Aspergillus fumigatus ATCC 13073” value [12]?
**A.** >64

**Q.** What about the “Minimum inhibitory concentration Aspergillus fumigatus ATCC 10894” value [13] of the same molecule?
**A.** >64

**Q.** What about the “Minimum inhibitory concentration Aspergillus fumigatus ATCC 204305” value [14] of the same molecule?
**A.** >64

**Q.** And the “Minimum inhibitory concentration Aspergillus fulavus ATCC 204304” value [15]?
**A.** >64

**Q.** And the “Minimum inhibitory concentration Aspergillus fumigatus ATCC 16424” value [16]?
**A.** >64

**Q.** And the “Minimum inhibitory concentration Aspergillus fumigatus ATCC 1028” value [17]?
**A.** >64

**Q.** And the MIC ([18]; NCPF8018, read-out: MIC C. Glabrata NCPF8018)?
**A.** 0.5 to 4 mg/L (≈ 1.63 to 13.1 µM)

**Q.** What about the MIC ([18]; NCPF8018, read-out: MIC Fluconazole, C. glabrata 8018) of the same molecule?
**A.** > 128 mg/L

**Q.** What about the MIC ([18]; NCPF8018, Table 4, common panel, 24 hours, ≥50% inhibition, read-out: MIC C. glabrata NCPF8018) of the same molecule?
**A.** 0.5 to 4 mg/L (≈ 1.63 to 13.1 µM)
